Like-named read-outs stand apart in the source and are kept apart here.
Tests used:
[1] = tested on: P. falciparum blood stage 3D7 strain; assay: Growth of P. falciparum blood stage 3D7 strain (phenotypic); format: cell-based, Plasmodium falciparum; conditions: Figure 2A
Excerpt: (§1) We previously reported the synthesis of a series of macrocycles, including 1 (Figure 2A), designed to investigate how structural features influence molecular chameleonicity.[15],[21] Originating from the structural similarities between 1 and hymenocardine, we investigated 1 in screens for P. falciparum and four kinetoplastid parasites: T. b. brucei, T. b. rhodesiense, T. cruzi, and L. infantum. In the screens, we also included compounds 2 and 3 (Figure 2A), which were obtained from an intermediate late in the synthetic route to 1. Since very few validated protein targets relevant to clearance of parasites are known, phenotypic assays were used to investigate the antiparasitic activity for all five parasites. For malaria, the P. falciparum blood stage 3D7 strain was used to test the three compounds. For the two Trypanosoma brucei species, the reduction in trypomastigote growth in culture medium was determined after the addition of 1–3. For T. cruzi, the intracellular parasite growth in infected human fibroblasts (MRC-5 cell line) was assessed in the presence and absence of the three inhibitors. Similarly, the growth of L. infantum was assessed in infected primary mouse macrophages (PMMs) in the presence and absence of the inhibitors. […] The assays for T. cruzi and L. infantum are complex, i.e., they determine the degree of inhibition of parasitic replication in a mammalian cell line; this complexity may lead to a high variability for some compounds.
(§2) The growth of the P. falciparum blood stage 3D7 strain,[53] the two T. brucei species in axenic cultures,[54]T. cruzi in infected human fibroblasts (MRC-5 cell line),[55] and of L. infantum in infected primary mouse macrophages (PMMs)[56] was determined as previously reported in the presence and absence of inhibitors 1–12.

T. b. brucei = assay: Growth of T. b. brucei trypomastigotes in axenic culture; format: cell-based; conditions: Trypanosoma brucei
Excerpt: as §1, §2

T. b. rhodesiense = assay: Growth of T. b. rhodesiense trypomastigotes in axenic culture; format: cell-based, Trypanosoma brucei rhodesiense; conditions: Trypanosoma brucei, RHODESIENSE / STIB900; CSV supplement; decimal comma; read-out: EC50 T.b. rhodesiense STIB 900
Excerpt: as §1, §2

T. cruzi = assay: Intracellular growth of T. cruzi in infected human fibroblasts (MRC-5 cell line); format: cell-based; conditions: Trypanosoma cruzi
Excerpt: as §1, §2

L. infantum = assay: Growth of L. infantum in infected primary mouse macrophages (PMMs), phenotypic assay; format: cell-based, Leishmania infantum; conditions: Leishmania infantum, Macrophage
Excerpt: as §1
(§3) The potency of macrocycles 1–12 to inhibit the growth of L. infantum was determined in a phenotypic assay in which the parasite was grown in primary peritoneal mouse macrophages (PMMs). To understand whether the SAR for inhibition of parasitic growth is impacted by low cell permeability, the permeability of compounds 1–12 was determined separately. Madin-Darby canine kidney (MDCK) cells transfected with the human MDR1 (multidrug resistance 1) gene (MDCK-MDR1 cells) were used to determine permeabilities in the apical to basolateral direction (Papp AB) as well as efflux ratios (ERs). […] Lipophilicity (Log D at pH 7.4), aqueous kinetic solubility and mouse liver microsomal metabolism were also determined for 1–12, and are discussed separately (cf. physiochemical properties and ADMET, below).
as §2

Leishmania donovani = assay: Activity against Leishmania donovani; format: cell-based
MRC-5 cells = assay: Host cell cytotoxicity in MRC-5 cells; format: cell-based, human; conditions: CSV supplement; decimal comma
[2] = tested on: primary mouse macrophages (PMMs); assay: Host cell cytotoxicity in primary mouse macrophages (PMM); format: cell-based; conditions: CSV supplement; decimal comma
MDR1 = assay: in vitro; format: in vitro ADME, canine; conditions: dog; for Papp B→A: MDCK-MDR1, pH 7.4; for Papp A→B: MDCK-MDR1, pH 7.4, Papp AB
Procedure: as §3
(§4) The kinetic solubility in phosphate buffered saline at pH 7.4, chromatographic Log D at pH 7.4, cell permeability across a MDCK-MDR1 cell monolayer at pH 7.4, and the clearance in mouse liver microsomes of 1–12 was determined at TCG Lifesciences.

[3] = Kinetic solubility in phosphate buffered saline at pH 7.4; format: physicochemical; conditions: phosphate buffered saline
Procedure: as §4

[4] = Chromatographic Log D at pH 7.4; format: physicochemical; conditions: 1-octanol/PBS pH 7.4, determined by chromatography, mean of two measurements
Procedure: as §4

[5] = Clearance in mouse liver microsomes; format: in vitro ADME; conditions: for microsomal CLint: mouse, liver microsomes
Procedure: as §4

[6] = Clearance in human microsomes; format: in vitro ADME; conditions: CSV supplement
Excerpt: Supplement jm4c01370_si_002.csv, table | column: CLint in vitro Human Microsomes µL/min/mg; t(1/2) min

[7] = Metabolite identification after incubation with rat liver microsomes; format: in vitro ADME; conditions: Figure S3: rat liver microsomes, samples at 5, 10, 20, 30 and 60 minutes
Procedure: page 4: Figure S2. Endo and exo conformations for compound 5, obtained using the Monte Carlo-QM protocol for conformational sampling. Minimum energy conformations (MECs) and all conformations within 5 kcal/mol of the MECs are shown. Figure S3. Metabolically labile sites (indicated by red circles) observed for compound 3 after incubation with rat liver microsomes. Samples were collected at 5, 10, 20, 30 and 60 minutes. […]

MDCK-MDR1 cells = assay: in vitro; format: in vitro ADME, canine; conditions: dog, MDCK-MDR1, pH 7.4
Procedure: as §3, §4

[8] = CSV supplement, decimal comma, read-out: EC50 T.b. brucei Squib 427
[9] = Table S1, mean (SD), 2 to 14 measurements, unit not given in Table S1, read-out: In vitro potency, T. b. brucei
[10] = TULAHUEN, MRC5, read-out: EC50 T. cruzi Tulahuen C4 (LacZ)
[11] = Table 1, mean (standard deviation, number of measurements), read-out: EC50 (μM), inhibition of the growth of L. infantum
[12] = MDCK-MDR1, pH 7.4, ER, efflux ratio (BA/AB)
[13] = MDCK-MDR1, pH 7.4, MDCK MDR1 - pH 7.4 Efflux Ratio
[14] = pH 7.4, CSV supplement, read-out: Kinetic solubility
[15] = pH 7.4, phosphate buffered saline pH 7.4, assay range 2.5–200 μM, read-out: solubility (kinetic)
[16] = CSV supplement, read-out: CLint in vitro Mouse Microsomes
[17] = incubation with mouse liver microsomes, read-out: CLint

Compound	EC50 (T. b. brucei; [8]) [µM]	EC50 (T. b. brucei; [9]) [µM]	EC50 (T. b. rhodesiense) [µM]	EC50 (T. cruzi; [10]) [µM]	EC50 (L. infantum; [11]) [µM]	MRC-5 cells Human Lung Fibroblast Cells (cytotoxicity) (MRC-5 cells)	PMM Primary Mouse Macrophages (inf-LMPH) (cytotoxicity) [2]	Papp B→A (MDR1) [×10⁻⁶ cm/s]	efflux ratio (MDR1; [12])	efflux ratio (MDR1; [13])	Papp A→B (MDR1) [×10⁻⁶ cm/s]	solubility kinetic [3, 14] [µg/mL]	solubility kinetic [3, 15] [µM]	chromatographic logD [4]	t(1/2), Mouse Microsomes ([5]; CSV supplement) [min]	microsomal CLint [5, 16] [µL/min/mg]	microsomal CLint [5, 17] [µL/min/mg]	other results
CC(C)(C)OC(=O)N[C@H]1Cc2ccc(cc2)Oc2ccc(cc2NC(=O)c2ccccn2)C(=O)CNC(=O)[C@H](Cc2ccccc2)NC1=O [Compound 3, tert-Butyl ((8S,11S)-8-Benzyl-4,7,10-trioxo-3^2-(picolinamido)-2-oxa-6,9-diaza-1,3(1,4)-dibenzenacyclododecaphane-11-yl)carbamate]	15.1	15	9.1	20	1.8	57,6 µM	>64 µM	22.2	6.4	6.4	3.5	1	< 2.5	4.9	<3	> 578	> 580	potency as inhibitor of P. falciparum (in words) [1]: moderately potent; EC50 ([1]; Plasmodium falciparum, 3D7, mean (SD) from 2 to 14 measurements): 3 µM; EC50 (T. cruzi; MRC5, Figure 2A, mean (SD) from 2 to 14 measurements, read-out: EC50 T. cruzi): 10 to 30 µM; EC50 (L. infantum; Figure 2, mean (SD), miltefosine from 19 measurements, read-out: EC50 L. infantum): < 2 µM; EC50 (Leishmania donovani): 1.04 ± 0.25 µM; t(1/2), Human Microsomes [6]: <3 min; microsomal CLint ([6]; human, microsomes, read-out: CLint in vitro Human Microsomes): > 578 µL/min/mg; metabolite identification, sites of metabolism [7]: oxidative metabolism occurring at the P2 and P3 positions, and at the α-carbon atom of the tyrosine moiety in the macrocyclic ring
CC(C)(C)OC(=O)N[C@H]1Cc2ccc(cc2)Oc2ccc(cc2NC(=O)c2ccccn2)CCNC(=O)[C@H](Cc2ccccc2)NC1=O [Compound 6, tert-Butyl ((8S,11S)-8-Benzyl-7,10-dioxo-3^2-(picolinamido)-2-oxa-6,9-diaza-1,3(1,4)-dibenzenacyclododecaphane-11-yl)carbamate]	11.8	12	6.3	18.8	12	45,8 µM	16,0 µM	79.9	8.4	8.4	> 5	3.8	5.9	5.1	<3	> 578	> 580	EC50 (T. cruzi; MRC5, Table S1, mean (SD), 2 to 14 measurements, unit not given in Table S1, read-out: In vitro potency, T. cruzi): 19 µM; EC50 (L. infantum; CSV supplement, decimal comma, read-out: EC50 L. infantum MHOM/MA(BE)/67): 12.3 µM; Papp AB (MDCK-MDR1 cells): 9.5 ×10^–6 cm/s

Source: publication PMC11513892, “Discovery of a Series of Macrocycles as Potent Inhibitors of Leishmania Infantum” (Journal of Medicinal Chemistry, 2024)
